One experiment has as its system TA3Ha cells. The experiment is described as follows: Priming with antigen, challenge 2-3 days later with live TA3Ha cells, survival. Type of experiment: in vivo, mice. The source says: Groups of five mice at a time were primed with specific doses of T-alpha (TF) (Ta), T-beta (Tb) (asialo-GM1 disaccharide) and Tn S-Tags. After 2-3 days, they were challenged with 3×10^3 live TA3Ha cells.
Groups of five mice were primed with specific doses of epi. After 2-3 days they were challenged with 3′10^3 live TA3Ha cells.

The test system of a further experiment is DTH effector cells. The experiment is described as follows: Local transfer of DTH: antigen-primed spleen/T cells co-injected with triggering antigen into foot pad, net DTH swelling. The experiment is classed as in vivo, mice.

These results are taken from patent USRE38046E1, “Enhancement of the cellular immune response” (Biomira, Inc., priority 1986, dated 2003).

Take Epiglycanin: the “In Vivo Protection: Number of animals alive at 4 weeks” value with TA3Ha cells (Dose of Ag 0.1 ug) was 1/20; with TA3Ha cells (Dose of Ag 0.5 ug), 5/20; in the experiment with TA3Ha cells (Dose of Ag 1.0 ug) it was 8/20; with TA3Ha cells (Dose of Ag 5.0 ug) it was 8/15; with TA3Ha cells (Dose of Ag 10.0 ug) it was 7/20. Further, the “No. alive (at d. 9)” value with TA3Ha cells (priming dose 0.2 ug) was 2/5; in the experiment on TA3Ha cells (priming dose 1 ug) it was 4/5; in the experiment with TA3Ha cells (priming dose 2 ug) it was 4/5; in the experiment on TA3Ha cells (priming dose 10 ug), 0/4; with TA3Ha cells (priming dose 20 ug), 1/5; with TA3Ha cells (priming dose 100 ug) it was 1/5. The Survival ave. came out at 33.8 days in the experiment with TA3Ha cells (priming dose 0.2 ug); 44.2 days in the experiment with TA3Ha cells (priming dose 1 ug); 25.2 days in the experiment with TA3Ha cells (priming dose 2 ug); 22.3 days in the experiment with TA3Ha cells (priming dose 10 ug); 29.0 days in the experiment with TA3Ha cells (priming dose 20 ug); 25.5 days with TA3Ha cells (priming dose 100 ug). Also, the “protection against TA3Ha tumor cells” value with TA3Ha cells (summary of Table 3) is given as “did provide protection”. For the same substance, the DTH reaction result is “not to those carbohydrate determinants which are not represented on epiglycanin” in the experiment with DTH effector cells (cells primed with the priming Ag, triggering Ag Fuc); “reaction was with the T alpha, T beta and Tn determinants” in the experiment with DTH effector cells (cells primed with the priming Ag, triggering Ag Ta, listed as epi); “reaction was with the T alpha, T beta and Tn determinants” in the experiment with DTH effector cells (cells primed with the priming Ag, triggering Ag Tb, listed as epi); “reaction was with the T alpha, T beta and Tn determinants” in the experiment with DTH effector cells (cells primed with the priming Ag, triggering Ag Tn, listed as epi); “induced a specific DTH response” with DTH effector cells (triggering antigen Epi-M (epi linked to SEPHAROSE microspheres)); “induced a specific DTH response” in the experiment on DTH effector cells (triggering antigen irradiated TA3Ha cells).
